{"source": "paper PMC6079014", "about": "“Calcium is an essential cofactor for metal efflux by the ferroportin transporter family” (Nature Communications, 2018)", "key": {"human Fpn [1]": {"target": "T1, human Fpn (Homo sapiens, UniProt Q9NP59)", "T1 construct": "expressed in transfected cells; host or cells: Xenopus laevis oocytes injected with Fpn RNA", "T1 sequence (Q9NP59 1-571)": "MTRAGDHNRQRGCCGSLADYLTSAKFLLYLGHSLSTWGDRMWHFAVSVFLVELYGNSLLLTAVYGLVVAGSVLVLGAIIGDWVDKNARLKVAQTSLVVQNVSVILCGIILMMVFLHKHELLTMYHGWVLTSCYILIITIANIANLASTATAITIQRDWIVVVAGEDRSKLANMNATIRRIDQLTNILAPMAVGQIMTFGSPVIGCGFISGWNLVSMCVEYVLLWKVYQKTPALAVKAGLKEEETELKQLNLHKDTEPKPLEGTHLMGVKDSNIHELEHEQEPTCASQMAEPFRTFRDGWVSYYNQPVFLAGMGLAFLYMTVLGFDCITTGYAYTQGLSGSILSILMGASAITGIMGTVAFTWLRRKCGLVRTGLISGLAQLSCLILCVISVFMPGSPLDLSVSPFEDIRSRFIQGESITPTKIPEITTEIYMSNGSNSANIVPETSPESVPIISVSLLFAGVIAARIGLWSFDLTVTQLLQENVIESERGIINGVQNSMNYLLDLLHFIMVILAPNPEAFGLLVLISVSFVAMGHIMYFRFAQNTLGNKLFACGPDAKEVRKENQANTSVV", "experiment": "Radiotracer metal efflux assay in Xenopus oocytes expressing human Fpn", "assay_type": "cell-based", "method": "We performed laparotomy and ovariectomy on adult female Xenopus laevis frogs (Nasco, Fort Atkinson, WI) under 2-aminoethylbenzoate methanesulfonate anesthesia (0.2%, by immersion, to effect) following a protocol approved by the University of Cincinnati Institutional Animal Care and Use Committee. Ovarian tissue was isolated and treated for 3 h with […] collagenase A (Roche Diagnostics Corp., Indianapolis, IN) in calcium-free-modified Barths’ medium (MBM) of composition 88 mM NaCl, 1 mM KCl, 2.4 mM NaHCO3, 1.57 mM MgSO4, 0.66 mM NaNO3, 10 mM 4-(2-hydroxyethyl)-1-piperazineethanesulfonic acid (HEPES), buffered to pH 7.5 by using 2-amino-2-hydroxymethyl-propane-1,3-diol (Tris base). We isolated defolliculate stage V–VI oocytes stored at 17 °C in MBM of composition 88 mM NaCl, 1 mM KCl, 2.4 mM NaHCO3, 0.82 MgSO4, 0.75 mM CaCl2, 0.66 mM NaNO3, 10 mM HEPES, buffered to pH 7.5 by using Tris base, with 50 mg l^−1 ciprofloxacin. We expressed in Xenopus oocytes the 1A transcript form of human Fpn fused at its C-terminus with the enhanced green fluorescent protein (GFP) as described. Oocytes were injected with ∼50 ng of Fpn RNA and incubated for 4–6 days before being used in functional assays. Control oocytes were noninjected.\nWe measured metal efflux from oocytes expressing Fpn by using a radiotracer assay. Radiochemicals ^55Fe, ^45Ca, ^57Co, ^65Zn were obtained from Perkin-Elmer Life Science Products (Boston, MA) and ^63Ni from the National Isotope Development Center (Oak Ridge, TN). We used ^55Fe (added as FeCl3) at final specific activity 0.4–2.0 GBq mg^−1, ^45Ca (added as CaCl2) at final specific activity 0.5–0.9 GBq mg^−1, ^57Co (added as CoCl2) at final specific activity 1.6 GBq mg^−1, ^65Zn (added as ZnCl2) at final specific activity 0.2 GBq mg^−1, and ^63Ni (added as NiCl2) at final specific activity 0.6 GBq mg^−1. Oocytes were injected with 50 nl of 5 μM metal radionuclide (*M) in vehicle of composition 250 mM KCl, 5 mM nitrilotriacetic acid, trisodium salt, buffered to pH 7.0 with ∼4 mM 2-(N-morpholino)ethanesulfonic acid (MES) (GFS Chemicals, Columbus, OH). After injection, oocytes were briefly stored in ice-cold MBM (for 1–5 min) prior to the start of the efflux assay.\nTo initiate the efflux assay, we placed oocytes in standard efflux medium of composition 100 mM NaCl, 1 mM KCl, 2 mM CaCl2, 1 mM MgCl2, 0.5 mM bathophenanthroline disulfonic acid (BPS), 1 mM nitrilotriacetic acid (NTA) trisodium salt, 50 μg/ml apotransferrin (ApoTf) (R&D Systems Inc., Minneapolis, MN), buffered with 0–5 mM MES, and 0–5 mM N′,N′-diethylpiperazine to obtain pH 7.5, with the following exceptions. To prepare Ca^2+-free medium, we replaced 2 mM CaCl2 with 4 mM NaCl and added 1 mM ethylene glycol-bis(2-aminoethyl ether)-N,N,N′,N′-tetraacetic acid (EGTA). To prepare Mg^2+-free medium, we replaced […] MgCl2 with 4 mM NaCl and added 1 mM ethylenediaminetetraacetic acid (EDTA). To measure ^55Fe efflux as a function of extracellular [Ca^2+] over the range 0.1–20 mM Ca^2+ (Figs. 1c, 6b), we adjusted [NaCl] and [CaCl2] on a 2:1 molar basis without the addition of EGTA. Oocytes were then transferred individually in 200 µl of medium to flat-bottomed wells of a 96-well plate and incubated 30 min—within the linear phase of metal efflux[10] —at 23–27 °C with gentle rocking. To terminate efflux, we removed 150 µl of medium (0.75 × [N0–Nt]) from each well for liquid-scintillation counting in Ultima Gold liquid-scintillation cocktail (Perkin-Elmer, Waltham, MA). The corresponding oocytes were rinsed twice in ice-cold medium (without BPS), solubilized with 5% (w/v) sodium dodecyl sulfate, and counted (Nt). We fit our data for oocyte radiotracer content (N) over time (Eq. (1)) and obtained the first-order rate constant (k) for metal radionuclide (*M) efflux for individual oocytes. N0 and Nt are counts per min (cpm) in the oocyte at time = 0 and time = t, respectively.1 Nt=N0⋅exp(-k⋅t) […]"}, "BbFpn D24A": {"target": "BbFpn D24A (Bdellovibrio bacteriovorus, UniProt Q6MLJ0, D24A)", "sequence (Q6MLJ0 whole entry D24A)": "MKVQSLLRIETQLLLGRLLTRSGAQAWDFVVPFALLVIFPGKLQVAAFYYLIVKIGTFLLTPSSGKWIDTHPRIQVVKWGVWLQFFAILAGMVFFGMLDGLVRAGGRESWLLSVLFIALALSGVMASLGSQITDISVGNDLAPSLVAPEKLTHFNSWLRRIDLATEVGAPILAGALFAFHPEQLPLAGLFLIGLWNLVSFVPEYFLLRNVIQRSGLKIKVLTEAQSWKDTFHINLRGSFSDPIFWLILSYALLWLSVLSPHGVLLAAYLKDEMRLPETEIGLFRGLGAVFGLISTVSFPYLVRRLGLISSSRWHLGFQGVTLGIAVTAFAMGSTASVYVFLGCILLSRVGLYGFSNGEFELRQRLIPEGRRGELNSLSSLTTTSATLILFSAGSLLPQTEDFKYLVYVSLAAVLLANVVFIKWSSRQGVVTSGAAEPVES", "experiment": "Isothermal titration calorimetry, D24A BbFpn", "assay_type": "binding, Bdellovibrio bacteriovorous"}, "human Fpn [2]": {"target": "T1, human Fpn", "experiment": "Radiotracer metal efflux assay in Xenopus oocytes expressing human Fpn", "assay_type": "cell-based", "details": "2 mM extracellular Ca2+ vs 0 mM Ca2+ plus 1 mM EGTA; 50 nl of 50 µM 65Zn injected"}, "[3]": {"details": "2 mM extracellular Ca2+ vs 0 mM Ca2+ plus 1 mM EGTA"}}, "note": "Values joined by “and” are separate entries in the source; they are usually repeats but may differ in a detail not shown here. Equal entries are not always repeated."}
{"smiles": "[Ca+2]", "note": "[Ca^2+, calcium]", "values": [{"measurement": "EC50", "setting": "human Fpn [1]", "result": "900 µM and 800 to 900 µM and 800 µM"}, {"measurement": "Dependence of Fpn-mediated 55Fe efflux on extracellular Ca2+", "setting": "human Fpn [1]; [3]", "result": "dependent"}, {"measurement": "Effect of extracellular Ca2+ on Fpn-mediated 57Co efflux", "setting": "human Fpn [1]; [3]", "result": "activated"}, {"measurement": "Effect of extracellular Ca2+ on Fpn-mediated 63Ni efflux", "setting": "human Fpn [1]; [3]", "result": "activated"}, {"measurement": "45Ca efflux from oocytes expressing Fpn vs control", "setting": "human Fpn [1]; oocytes injected with 45Ca", "result": "did not stimulate"}, {"measurement": "Binding to D24A BbFpn by ITC (in words)", "setting": "BbFpn D24A", "result": "complete loss"}, {"measurement": "Effect of extracellular Ca2+ on Fpn-mediated 65Zn efflux", "setting": "human Fpn [2]", "result": "activated"}]}
